Experimental data from the supplement of paper PMC10883282.
Counter-ions that a name gives are not always drawn. ± gives the standard deviation of the averaged measurements.

Tested on: G401
Experiment: relative viability vs DMSO control (72 h) (fraction); higher = more viable cells
Summary of the method: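 Percent growth from ATPLite readings, averaged over up to triplicate wells, was used as relative viability. Sarcoma cell lines were seeded into 384-well plates for 80–90% confluence, dosed after 24 h, and kept 72 h at 37 °C, 5% CO2. Data were rescaled to a range where 1 is full and 0 is none.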

Row | SMILES | relative viability (0.00017 µM) | relative viability (0.00051 µM) | relative viability (0.00152 µM) | relative viability (0.00457 µM) | relative viability (0.01372 µM) | relative viability (0.04115 µM) | relative viability (0.1235 µM) | relative viability (0.3704 µM) | relative viability (1.111 µM) | relative viability (3.333 µM) | relative viability (10 µM)
1 | Cc1cc(C)c(/C=C2\C(=O)Nc3ccccc32)[nH]1 [Semaxanib] | 0.957 ± 0.044 | 0.981 ± 0.031 | 0.957 ± 0.043 | 0.976 ± 0.037 | 0.964 ± 0.036 | 0.948 ± 0.019 | 0.9755 ± 0.0068 | 0.9895 ± 0.0091 | 0.932 ± 0.046 | 0.904 ± 0.05 | 0.813 ± 0.067
2 | CC1(C)CNc2cc(NC(=O)c3cccnc3NCc3ccncc3)ccc21 [Motesanib] | 0.984 ± 0.047 | 0.982 ± 0.042 | 0.973 ± 0.019 | 0.955 ± 0.03 | 0.979 ± 0.015 | 0.962 ± 0.022 | 0.949 ± 0.022 | 0.934 ± 0.036 | 0.9058 ± 0.0034 | 0.84 ± 0.034 | 0.684 ± 0.02
3 | CNC(=O)c1ccc(-c2cnc3ncc(Cc4ccc5ncccc5c4)n3n2)cc1F [Capmatinib] | 1.01 ± 0.023 | 0.988 ± 0.024 | 1.03 ± 0.027 | 1.04 ± 0.019 | 0.977 ± 0.03 | 1.01 ± 0.058 | 0.9706 ± 0.0066 | 1.02 ± 0.0027 | 0.981 ± 0.01 | 0.929 ± 0.012 | 0.877 ± 0.053
4 | CC(C)N1CCN(Cc2cnc(-c3cc(-c4cccc5[nH]ccc45)cc4[nH]ncc34)o2)CC1 [Nemiralisib] | 0.962 ± 0.043 | 0.933 ± 0.035 | 0.883 ± 0.015 | 0.921 ± 0.033 | 0.904 ± 0.035 | 0.911 ± 0.048 | 0.916 ± 0.013 | 0.877 ± 0.01 | 0.833 ± 0.021 | 0.735 ± 0.026 | 0.609 ± 0.012
5 | CO[C@H]1C[C@@H]2CC[C@@H](C)[C@@](O)(O2)C(=O)C(=O)N2CCCC[C@H]2C(=O)O[C@H]([C@H](C)C[C@@H]2CC[C@@H](OP(C)(C)=O)[C@H](OC)C2)CC(=O)[C@H](C)/C=C(\C)[C@@H](O)[C@@H](OC)C(=O)[C@H](C)C[C@H](C)/C=C/C=C/C=C/1C [Ridaforolimus] | 0.919 ± 0.043 | 0.885 ± 0.03 | 0.841 ± 0.071 | 0.793 ± 0.068 | 0.751 ± 0.07 | 0.739 ± 0.056 | 0.744 ± 0.027 | 0.725 ± 0.019 | 0.712 ± 0.012 | 0.681 ± 0.017 | 0.645 ± 0.022
6 | Nc1cc(C(F)(F)F)c(-c2cc(N3CCOCC3)nc(N3CCOCC3)n2)cn1 [Buparlisib] | 0.957 ± 0.011 | 0.983 ± 0.013 | 0.932 ± 0.024 | 0.966 ± 0.022 | 1 ± 0.027 | 0.928 ± 0.041 | 0.86 ± 0.027 | 0.767 ± 0.037 | 0.594 ± 0.014 | 0.304 ± 0.005 | 0.237 ± 0.0068
7 | Cc1ccc(F)c(NC(=O)Nc2ccc(-c3cccc4[nH]nc(N)c34)cc2)c1 [Linifanib] | 1.03 ± 0.045 | 1.03 ± 0.087 | 0.996 ± 0.021 | 1.02 ± 0.02 | 1.01 ± 0.064 | 0.994 ± 0.01 | 0.956 ± 0.031 | 0.956 ± 0.048 | 0.928 ± 0.04 | 0.915 ± 0.013 | 0.9524 ± 0.0058
8 | N#CC[C@H](C1CCCC1)n1cc(-c2ncnc3[nH]ccc23)cn1 [Ruxolitinib] | 0.971 ± 0.051 | 1.01 ± 0.037 | 1.01 ± 0.034 | 1 ± 0.026 | 1.02 ± 0.02 | 0.969 ± 0.039 | 0.99 ± 0.024 | 0.935 ± 0.047 | 0.942 ± 0.035 | 0.936 ± 0.025 | 0.824 ± 0.034
9 | C=CC(=O)Nc1cccc(Oc2nc(Nc3ccc(N4CCN(C)CC4)cc3)nc3ccsc23)c1 [Olmutinib] | 0.984 ± 0.021 | 0.976 ± 0.048 | 0.969 ± 0.022 | 0.984 ± 0.039 | 0.96 ± 0.03 | 0.986 ± 0.043 | 1 ± 0.041 | 1.01 ± 0.043 | 0.916 ± 0.018 | 0.759 ± 0.019 | 0.481 ± 0.036
10 | CCCS(=O)(=O)Nc1ccc(F)c(C(=O)c2c[nH]c3ncc(-c4ccc(Cl)cc4)cc23)c1F [Vemurafenib] | 1.01 ± 0.0022 | 1.02 ± 0.016 | 1.01 ± 0.017 | 1.004 ± 0.01 | 1.01 ± 0.024 | 1 ± 0.03 | 1.02 ± 0.0078 | 1.031 ± 0.0097 | 1.01 ± 0.011 | 1.01 ± 0.021 | 0.753 ± 0.023
11 | Cc1ccc(NC(=O)c2ccc(CN3CCN(C)CC3)cc2)cc1Nc1nc(-c2cccnc2)cs1 [Masitinib] | 0.973 ± 0.058 | 0.9736 ± 0.0054 | 0.9669 ± 0.0091 | 0.9556 ± 0.0058 | 0.979 ± 0.026 | 0.971 ± 0.047 | 0.931 ± 0.024 | 0.843 ± 0.056 | 0.687 ± 0.0084 | 0.388 ± 0.014 | 0.0983 ± 0.005
12 | Cc1cnc(Nc2ccc(OCCN3CCCC3)cc2)nc1Nc1cccc(S(=O)(=O)NC(C)(C)C)c1 [Fedratinib] | 1.029 ± 0.0083 | 1.05 ± 0.029 | 1.038 ± 0.0091 | 1.03 ± 0.019 | 1.04 ± 0.011 | 0.997 ± 0.024 | 0.919 ± 0.015 | 0.8157 ± 0.0074 | 0.499 ± 0.0075 | 0.204 ± 0.012 | 0.0136 ± 0.00091
13 | C[C@@H](c1ccc2nccn2c1)n1nnc2ncc(-c3cnn(C)c3)nc21 [Volitinib] | 1.01 ± 0.029 | 1.01 ± 0.042 | 1.03 ± 0.035 | 1.04 ± 0.044 | 1 ± 0.018 | 1.03 ± 0.019 | 1.03 ± 0.015 | 1.04 ± 0.046 | 1.03 ± 0.049 | 0.987 ± 0.026 | 0.955 ± 0.025
14 | COc1cccc2c1C(=O)c1c(O)c3c(c(O)c1C2=O)C[C@@](O)(C(=O)CO)C[C@@H]3O[C@H]1C[C@H](N)[C@H](O)[C@H](C)O1 [Doxorubicin Hydrochloride] | 1.03 ± 0.011 | 1.02 ± 0.018 | 1 ± 0.041 | 0.937 ± 0.021 | 0.8493 ± 0.0066 | 0.681 ± 0.019 | 0.476 ± 0.041 | 0.079 ± 0.017 | 0.0407 ± 0.0027 | 0.096 ± 0.0082 | 0.101 ± 0.0054
15 | CCN1CCN(Cc2ccc(Nc3ncc(F)c(-c4cc(F)c5nc(C)n(C(C)C)c5c4)n3)nc2)CC1 [Abemaciclib] | 0.985 ± 0.03 | 0.964 ± 0.018 | 0.924 ± 0.048 | 0.922 ± 0.061 | 0.857 ± 0.051 | 0.822 ± 0.037 | 0.796 ± 0.044 | 0.786 ± 0.048 | 0.758 ± 0.017 | 0.746 ± 0.037 | 0.6941 ± 0.0055
16 | C=CC(=O)N1CCC([C@@H]2CCNc3c(C(N)=O)c(-c4ccc(Oc5ccccc5)cc4)nn32)CC1 [Zanubrutinib] | 0.964 ± 0.022 | 0.96 ± 0.023 | 0.99 ± 0.023 | 0.99 ± 0.024 | 0.946 ± 0.044 | 0.957 ± 0.031 | 0.957 ± 0.026 | 0.9805 ± 0.0066 | 0.932 ± 0.035 | 0.872 ± 0.029 | 0.801 ± 0.039
17 | COc1cc2/c(=N/c3ccc(Br)cc3F)nc[nH]c2cc1OCC1CCN(C)CC1 [Vandetanib] | 0.983 ± 0.019 | 0.98623 ± 0.00074 | 0.989 ± 0.019 | 0.99 ± 0.028 | 0.993 ± 0.025 | 0.968 ± 0.025 | 0.971 ± 0.015 | 0.988 ± 0.033 | 0.87 ± 0.013 | 0.736 ± 0.0092 | 0.0218 ± 0.0004
18 | C[C@@H]1COCCN1c1cc(-c2ccnn2C)c2ccnc(-c3ccn[nH]3)c2n1 | 0.996 ± 0.018 | 0.9815 ± 0.0068 | 1 ± 0.011 | 1.01 ± 0.023 | 0.997 ± 0.02 | 0.915 ± 0.026 | 0.803 ± 0.043 | 0.675 ± 0.0044 | 0.598 ± 0.0066 | 0.517 ± 0.012 | 0.486 ± 0.012
19 | C[C@]1(O)C[C@@H](c2nc(-c3ccc4ccc(-c5ccccc5)nc4c3)c3c(N)nccn32)C1 [Linsitinib] | 1 ± 0.063 | 0.974 ± 0.026 | 1.02 ± 0.048 | 0.955 ± 0.013 | 0.992 ± 0.023 | 0.894 ± 0.034 | 0.791 ± 0.049 | 0.668 ± 0.013 | 0.627 ± 0.007 | 0.562 ± 0.017 | 0.466 ± 0.026
